Measured values taken from PMC12564498, “Benzo[d]imidazole–Naphthalen-Arylmethanone Regioisomers as CB1 Ligands: Evaluation of Agonism via an Indirect Cytotoxicity-Based Approach” (International Journal of Molecular Sciences, 2025).

What follows are compounds tested against T1, human cannabinoid CB1 receptor (Homo sapiens, UniProt P21554) (assay: biochemical). Conditions: not given.
T1 construct: purchased Perkin Elmer Inc., Singapore Pte; Ltd. RBHCB1M400UA; host or cells: HEK293-EBNA cell membranes (overexpressing)
T1 sequence (P21554 whole entry): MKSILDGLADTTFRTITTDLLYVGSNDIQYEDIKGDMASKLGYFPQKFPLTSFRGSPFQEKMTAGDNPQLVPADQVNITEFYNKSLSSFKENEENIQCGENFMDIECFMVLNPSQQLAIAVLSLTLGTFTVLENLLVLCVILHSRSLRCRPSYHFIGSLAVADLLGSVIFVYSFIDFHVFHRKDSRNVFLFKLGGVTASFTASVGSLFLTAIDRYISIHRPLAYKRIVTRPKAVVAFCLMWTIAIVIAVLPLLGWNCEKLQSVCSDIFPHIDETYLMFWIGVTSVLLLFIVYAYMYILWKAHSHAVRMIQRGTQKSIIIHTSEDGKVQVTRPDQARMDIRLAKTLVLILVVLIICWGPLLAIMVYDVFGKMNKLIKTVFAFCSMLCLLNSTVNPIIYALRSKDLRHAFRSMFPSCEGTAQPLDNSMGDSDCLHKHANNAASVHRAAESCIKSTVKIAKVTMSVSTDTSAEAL
Format: binding
`O=C(c1cccc2ccccc12)n1c(-c2ccon2)nc2ccc(Cl)cc21` [4d′] gave an IC50 greater than 10 µM.

Same assay, conditions: CB1 Ki
Compound `O=C(c1cccc2ccccc12)n1c(-c2ccon2)nc2ccc(Cl)cc21` [4d′] has a Ki greater than 10 µM.

Same assay, conditions: Cheng–Prusoff from IC50, [3H]CP-55940 0.5 nM, mean ± SEM n = 3; read-out: CB1 Ki
Compound `O=C(c1cccc2ccccc12)n1c(-c2cccnc2)nc2ccc(Cl)cc21` [4a′] has a Ki greater than 10 µM. Compound `Cc1cc(-c2nc3ccc(Cl)cc3n2C(=O)c2cccc3ccccc23)no1` [4c′] has a Ki greater than 10 µM. In the case of `Cc1ccc(-c2nc3ccc(Cl)cc3n2C(=O)c2cccc3ccccc23)o1` [4e′], the Ki is reported as greater than 10 µM. In the case of `O=C(c1cccc2ccccc12)n1c(-c2cccnc2)nc2ccc(F)cc21` [5a′, (6-fluoro-2-(pyridin-3-yl)-1H-benzo[d]imidazol-1-yl)(naphthalen-1-yl)methanone], the Ki is reported as greater than 10 µM. Work on `COc1cccc(-c2nc3ccc(F)cc3n2C(=O)c2cccc3ccccc23)c1` [5b′, (6-fluoro-2-(3-methoxyphenyl)-1H-benzo[d]imidazol-1-yl)(naphthalen-1-yl)methanone] yielded a Ki greater than 10 µM. With `Cc1cc(-c2nc3ccc(F)cc3n2C(=O)c2cccc3ccccc23)no1` [5c′, (6-fluoro-2-(5-methylisoxazol-3-yl)-1H-benzo[d]imidazol-1-yl)(naphthalen-1-yl)methanone] the Ki was greater than 10 µM. For `O=C(c1cccc2ccccc12)n1c(-c2ccon2)nc2ccc(F)cc21` [5d′, (6-fluoro-2-(isoxazol-3-yl)-1H-benzo[d]imidazol-1-yl)(naphthalen-1-yl)methanone], the Ki was greater than 10 µM. For `Cc1ccc(-c2nc3ccc(F)cc3n2C(=O)c2cccc3ccccc23)o1` [5e′, (6-fluoro-2-(5-methylfuran-2-yl)-1H-benzo[d]imidazol-1-yl)(naphthalen-1-yl)methanone], the Ki was greater than 10 µM. `O=C(c1cccc2ccccc12)n1c(-c2cccnc2)nc2cc(Cl)ccc21` [Compound 4a] was tested, and the Ki was greater than 10 µM.

Same assay, conditions: [3H]CP-55940 0.5 nM, hCB1 HEK293-EBNA membranes, mean ± SEM n = 3; read-out: CB1 IC50
`O=C(c1cccc2ccccc12)n1c(-c2cccnc2)nc2ccc(Cl)cc21` [4a′] gave an IC50 greater than 10 µM. In the case of `Cc1cc(-c2nc3ccc(Cl)cc3n2C(=O)c2cccc3ccccc23)no1` [4c′], the IC50 is reported as greater than 10 µM. Compound `Cc1ccc(-c2nc3ccc(Cl)cc3n2C(=O)c2cccc3ccccc23)o1` [4e′] has an IC50 greater than 10 µM. `O=C(c1cccc2ccccc12)n1c(-c2cccnc2)nc2ccc(F)cc21` [5a′, (6-fluoro-2-(pyridin-3-yl)-1H-benzo[d]imidazol-1-yl)(naphthalen-1-yl)methanone] showed an IC50 greater than 10 µM. With `COc1cccc(-c2nc3ccc(F)cc3n2C(=O)c2cccc3ccccc23)c1` [5b′, (6-fluoro-2-(3-methoxyphenyl)-1H-benzo[d]imidazol-1-yl)(naphthalen-1-yl)methanone] the IC50 was greater than 10 µM. Compound `Cc1cc(-c2nc3ccc(F)cc3n2C(=O)c2cccc3ccccc23)no1` [5c′, (6-fluoro-2-(5-methylisoxazol-3-yl)-1H-benzo[d]imidazol-1-yl)(naphthalen-1-yl)methanone] has an IC50 greater than 10 µM. With `O=C(c1cccc2ccccc12)n1c(-c2ccon2)nc2ccc(F)cc21` [5d′, (6-fluoro-2-(isoxazol-3-yl)-1H-benzo[d]imidazol-1-yl)(naphthalen-1-yl)methanone] the IC50 was greater than 10 µM. `Cc1ccc(-c2nc3ccc(F)cc3n2C(=O)c2cccc3ccccc23)o1` [5e′, (6-fluoro-2-(5-methylfuran-2-yl)-1H-benzo[d]imidazol-1-yl)(naphthalen-1-yl)methanone] gave an IC50 greater than 10 µM. For `O=C(c1cccc2ccccc12)n1c(-c2cccnc2)nc2cc(Cl)ccc21` [Compound 4a], the IC50 was greater than 10 µM.

Same assay, conditions: displacement of [3H]CP-55940 at 10 μM compound; read-out: CB1 Max Tested µM (% Displacement)
With `O=C(c1cccc2ccccc12)n1c(-c2cccnc2)nc2ccc(Cl)cc21` [4a′] the inhibition at 10 µM was 20%. With `Cc1cc(-c2nc3ccc(Cl)cc3n2C(=O)c2cccc3ccccc23)no1` [4c′] the inhibition at 10 µM was 44%. Compound `O=C(c1cccc2ccccc12)n1c(-c2ccon2)nc2ccc(Cl)cc21` [4d′] has an inhibition at 10 µM of 47%. `Cc1ccc(-c2nc3ccc(Cl)cc3n2C(=O)c2cccc3ccccc23)o1` [4e′] was tested, and the inhibition at 10 µM was 38%. For `O=C(c1cccc2ccccc12)n1c(-c2cccnc2)nc2ccc(F)cc21` [5a′, (6-fluoro-2-(pyridin-3-yl)-1H-benzo[d]imidazol-1-yl)(naphthalen-1-yl)methanone], the inhibition at 10 µM was 9.5%. `COc1cccc(-c2nc3ccc(F)cc3n2C(=O)c2cccc3ccccc23)c1` [5b′, (6-fluoro-2-(3-methoxyphenyl)-1H-benzo[d]imidazol-1-yl)(naphthalen-1-yl)methanone] showed an inhibition at 10 µM of 47%. `Cc1cc(-c2nc3ccc(F)cc3n2C(=O)c2cccc3ccccc23)no1` [5c′, (6-fluoro-2-(5-methylisoxazol-3-yl)-1H-benzo[d]imidazol-1-yl)(naphthalen-1-yl)methanone] showed an inhibition at 10 µM of 37%. In the case of `O=C(c1cccc2ccccc12)n1c(-c2ccon2)nc2ccc(F)cc21` [5d′, (6-fluoro-2-(isoxazol-3-yl)-1H-benzo[d]imidazol-1-yl)(naphthalen-1-yl)methanone], the inhibition at 10 µM is reported as 34%. `Cc1ccc(-c2nc3ccc(F)cc3n2C(=O)c2cccc3ccccc23)o1` [5e′, (6-fluoro-2-(5-methylfuran-2-yl)-1H-benzo[d]imidazol-1-yl)(naphthalen-1-yl)methanone] showed an inhibition at 10 µM of 43%. For `O=C(c1cccc2ccccc12)n1c(-c2cccnc2)nc2cc(Cl)ccc21` [Compound 4a], the inhibition at 10 µM was 36%.

What follows are compounds tested against T2, human recombinant cannabinoid CB2 receptor (Homo sapiens, UniProt P34972) (assay: CB2 radioligand displacement binding assay ([3H]CP-55940)). Conditions: Cheng–Prusoff from IC50, [3H]CP-55940 0.5 nM, mean ± SEM n = 3.
T2 construct: purchased Perkin Elmer Inc., Singapore Pte; Ltd. RBXCB2M400UA; host or cells: HEK293-EBNA cell membranes (overexpressing)
T2 sequence (P34972 whole entry): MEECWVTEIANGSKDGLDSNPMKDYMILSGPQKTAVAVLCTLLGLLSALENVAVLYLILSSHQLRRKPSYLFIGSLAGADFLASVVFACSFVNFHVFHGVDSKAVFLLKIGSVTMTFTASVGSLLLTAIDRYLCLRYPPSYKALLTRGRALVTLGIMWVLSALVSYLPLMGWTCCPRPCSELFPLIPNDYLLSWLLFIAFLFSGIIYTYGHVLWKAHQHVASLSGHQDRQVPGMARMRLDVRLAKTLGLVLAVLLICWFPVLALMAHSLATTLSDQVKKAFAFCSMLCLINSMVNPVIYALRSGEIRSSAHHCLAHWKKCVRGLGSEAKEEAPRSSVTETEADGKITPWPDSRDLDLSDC
Work on `Cc1cc(-c2nc3ccc(Cl)cc3n2C(=O)c2cccc3ccccc23)no1` [4c′] yielded a Ki greater than 10 µM. Compound `O=C(c1cccc2ccccc12)n1c(-c2ccon2)nc2ccc(Cl)cc21` [4d′] has a Ki greater than 10 µM. With `Cc1ccc(-c2nc3ccc(Cl)cc3n2C(=O)c2cccc3ccccc23)o1` [4e′] the Ki was greater than 10 µM. Work on `O=C(c1cccc2ccccc12)n1c(-c2cccnc2)nc2ccc(F)cc21` [5a′, (6-fluoro-2-(pyridin-3-yl)-1H-benzo[d]imidazol-1-yl)(naphthalen-1-yl)methanone] yielded a Ki greater than 10 µM. `COc1cccc(-c2nc3ccc(F)cc3n2C(=O)c2cccc3ccccc23)c1` [5b′, (6-fluoro-2-(3-methoxyphenyl)-1H-benzo[d]imidazol-1-yl)(naphthalen-1-yl)methanone] was tested, and the Ki was greater than 10 µM. Work on `Cc1cc(-c2nc3ccc(F)cc3n2C(=O)c2cccc3ccccc23)no1` [5c′, (6-fluoro-2-(5-methylisoxazol-3-yl)-1H-benzo[d]imidazol-1-yl)(naphthalen-1-yl)methanone] yielded a Ki greater than 10 µM. In the case of `O=C(c1cccc2ccccc12)n1c(-c2ccon2)nc2ccc(F)cc21` [5d′, (6-fluoro-2-(isoxazol-3-yl)-1H-benzo[d]imidazol-1-yl)(naphthalen-1-yl)methanone], the Ki is reported as greater than 10 µM. `Cc1ccc(-c2nc3ccc(F)cc3n2C(=O)c2cccc3ccccc23)o1` [5e′, (6-fluoro-2-(5-methylfuran-2-yl)-1H-benzo[d]imidazol-1-yl)(naphthalen-1-yl)methanone] showed a Ki greater than 10 µM. `O=C(c1cccc2ccccc12)n1c(-c2cccnc2)nc2cc(Cl)ccc21` [Compound 4a] was tested, and the Ki was 6.6 µM.

Same assay, conditions: [3H]CP-55940 0.5 nM, hCB2 HEK293-EBNA membranes, mean ± SEM n = 3
`Cc1cc(-c2nc3ccc(Cl)cc3n2C(=O)c2cccc3ccccc23)no1` [4c′] gave an IC50 greater than 10 µM. Compound `O=C(c1cccc2ccccc12)n1c(-c2ccon2)nc2ccc(Cl)cc21` [4d′] has an IC50 greater than 10 µM. `Cc1ccc(-c2nc3ccc(Cl)cc3n2C(=O)c2cccc3ccccc23)o1` [4e′] was tested, and the IC50 was greater than 10 µM. For `O=C(c1cccc2ccccc12)n1c(-c2cccnc2)nc2ccc(F)cc21` [5a′, (6-fluoro-2-(pyridin-3-yl)-1H-benzo[d]imidazol-1-yl)(naphthalen-1-yl)methanone], the IC50 was greater than 10 µM. In the case of `COc1cccc(-c2nc3ccc(F)cc3n2C(=O)c2cccc3ccccc23)c1` [5b′, (6-fluoro-2-(3-methoxyphenyl)-1H-benzo[d]imidazol-1-yl)(naphthalen-1-yl)methanone], the IC50 is reported as greater than 10 µM. Work on `Cc1cc(-c2nc3ccc(F)cc3n2C(=O)c2cccc3ccccc23)no1` [5c′, (6-fluoro-2-(5-methylisoxazol-3-yl)-1H-benzo[d]imidazol-1-yl)(naphthalen-1-yl)methanone] yielded an IC50 greater than 10 µM. With `O=C(c1cccc2ccccc12)n1c(-c2ccon2)nc2ccc(F)cc21` [5d′, (6-fluoro-2-(isoxazol-3-yl)-1H-benzo[d]imidazol-1-yl)(naphthalen-1-yl)methanone] the IC50 was greater than 10 µM. With `Cc1ccc(-c2nc3ccc(F)cc3n2C(=O)c2cccc3ccccc23)o1` [5e′, (6-fluoro-2-(5-methylfuran-2-yl)-1H-benzo[d]imidazol-1-yl)(naphthalen-1-yl)methanone] the IC50 was greater than 10 µM.

Same assay, conditions: displacement of [3H]CP-55940 at 10 μM compound; read-out: CB2 Max Tested µM (% Displacement)
`O=C(c1cccc2ccccc12)n1c(-c2cccnc2)nc2ccc(Cl)cc21` [4a′] was tested, and the inhibition at 10 µM was 52%. Compound `Cc1cc(-c2nc3ccc(Cl)cc3n2C(=O)c2cccc3ccccc23)no1` [4c′] has an inhibition at 10 µM of 29%. With `O=C(c1cccc2ccccc12)n1c(-c2ccon2)nc2ccc(Cl)cc21` [4d′] the inhibition at 10 µM was 42%. `Cc1ccc(-c2nc3ccc(Cl)cc3n2C(=O)c2cccc3ccccc23)o1` [4e′] was tested, and the inhibition at 10 µM was 52.8%. For `O=C(c1cccc2ccccc12)n1c(-c2cccnc2)nc2ccc(F)cc21` [5a′, (6-fluoro-2-(pyridin-3-yl)-1H-benzo[d]imidazol-1-yl)(naphthalen-1-yl)methanone], the inhibition at 10 µM was 16%. Work on `COc1cccc(-c2nc3ccc(F)cc3n2C(=O)c2cccc3ccccc23)c1` [5b′, (6-fluoro-2-(3-methoxyphenyl)-1H-benzo[d]imidazol-1-yl)(naphthalen-1-yl)methanone] yielded an inhibition at 10 µM of 53.5%. For `Cc1cc(-c2nc3ccc(F)cc3n2C(=O)c2cccc3ccccc23)no1` [5c′, (6-fluoro-2-(5-methylisoxazol-3-yl)-1H-benzo[d]imidazol-1-yl)(naphthalen-1-yl)methanone], the inhibition at 10 µM was 29%. With `O=C(c1cccc2ccccc12)n1c(-c2ccon2)nc2ccc(F)cc21` [5d′, (6-fluoro-2-(isoxazol-3-yl)-1H-benzo[d]imidazol-1-yl)(naphthalen-1-yl)methanone] the inhibition at 10 µM was 26%. `Cc1ccc(-c2nc3ccc(F)cc3n2C(=O)c2cccc3ccccc23)o1` [5e′, (6-fluoro-2-(5-methylfuran-2-yl)-1H-benzo[d]imidazol-1-yl)(naphthalen-1-yl)methanone] gave an inhibition at 10 µM of 52%. In the case of `O=C(c1cccc2ccccc12)n1c(-c2cccnc2)nc2cc(Cl)ccc21` [Compound 4a], the inhibition at 10 µM is reported as 35%.
